Some test systems named below: A498 renal; CCRF-CEM leukemia; EKVX NSCLC; HT29 colon; IGROV1 ovarian; M14 melanoma; MDA-MB-231 breast; MOLT-4 leukemia; RPMI-8226 leukemia; SK-OV-3 ovarian.
Holding throughout (experiment): growth of human tumour cells (NCI), 48 h

The structures appear in SMILES notation.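 In this assay, cells in 96-well plates receive the compound at five concentrations for 48 hours. Endpoints are linearly interpolated between the surrounding concentrations. TGI is the concentration that stops growth completely.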 Some results are limits rather than exact numbers.

For the molecule `CCOP(=O)(OCC)C(c1ccccc1)N(C(=O)NC(F)(F)F)c1ccc(C)cc1` (stereo not given), the TGI in the test on A498 renal, with CCRF-CEM leukemia, with EKVX NSCLC, with HT29 colon, with IGROV1 ovarian and with M14 melanoma was more than 100 µM in each case. The TGI with MDA-MB-231 breast, in the test with MOLT-4 leukemia, in the test on RPMI-8226 leukemia and in the test on SK-OV-3 ovarian was more than 100 µM in each case.
Take `O=C(NC1=C(Cl)C(=O)c2ccccc2C1=O)C(=O)c1c(O)c2ccccc2oc1=O`: the TGI in the test on A498 renal was 33.9 µM; with CCRF-CEM leukemia, more than 30.7 µM; with EKVX NSCLC, 22.4 µM; in the test on HT29 colon it was 12.8 µM; in the test on IGROV1 ovarian, 16.1 µM; in the test on M14 melanoma, 4.4 µM. Besides, the TGI in the test on MDA-MB-231 breast was 22.5 µM; in the test on MOLT-4 leukemia, 18 µM; with RPMI-8226 leukemia it was 30.3 µM; in the test with SK-OV-3 ovarian, 27.4 µM.
Regarding `CNCC(SC)c1ccc(O)c(O)c1` (stereo not given), the TGI in the test on A498 renal is more than 100 µM; with CCRF-CEM leukemia, 7.33 µM; in the test on EKVX NSCLC, 37.1 µM; in the test with HT29 colon, 99.5 µM; in the test with IGROV1 ovarian, more than 100 µM; with M14 melanoma, more than 100 µM. The TGI with MDA-MB-231 breast is more than 100 µM; in the test with MOLT-4 leukemia, 47.2 µM; with RPMI-8226 leukemia it was 58.6 µM; in the test with SK-OV-3 ovarian it was more than 100 µM.
Take `COC1(C)CCC(OS(C)(=O)=O)CO1` (stereo not given): the TGI with A498 renal, in the test with CCRF-CEM leukemia, in the test on EKVX NSCLC, in the test with HT29 colon, with IGROV1 ovarian and in the test with M14 melanoma was more than 100 µM in each case. The TGI in the test with MDA-MB-231 breast, in the test on MOLT-4 leukemia, in the test on RPMI-8226 leukemia and with SK-OV-3 ovarian was more than 100 µM throughout.
Turning to `C=CCN1C(=O)C[C@H](Cc2ccccc2)NC(=O)C[C@H](Cc2ccccc2)N(CC=C)C(=O)C[C@H](Cc2ccccc2)NC(=O)C[C@@H]1Cc1ccccc1`, the TGI in the test on A498 renal is more than 100 µM; with CCRF-CEM leukemia it was more than 100 µM; in the test on EKVX NSCLC, 9.25 µM; in the test on HT29 colon, more than 100 µM; in the test on IGROV1 ovarian, more than 100 µM; in the test with M14 melanoma, more than 100 µM. The TGI with MDA-MB-231 breast is more than 100 µM; in the test with MOLT-4 leukemia, 6.91 µM; in the test on RPMI-8226 leukemia, 9.66 µM; with SK-OV-3 ovarian it was more than 100 µM.
In the case of `Cc1cc2ccccc2oc(=O)/c1=N\Nc1ccccc1`, the TGI with A498 renal, in the test on CCRF-CEM leukemia, in the test with EKVX NSCLC, in the test with HT29 colon, with IGROV1 ovarian and in the test with M14 melanoma was more than 100 µM each time. The TGI is 77.9 µM in the test on MDA-MB-231 breast, more than 100 µM in the test with MOLT-4 leukemia, more than 100 µM in the test on RPMI-8226 leukemia and 62.8 µM with SK-OV-3 ovarian.
In the case of `C=CC(C)(C)/C(=C\CO[Si](C(C)C)(C(C)C)C(C)C)C(=O)N(C)c1ccccc1I`, the TGI with A498 renal amounted to 46 µM; in the test on CCRF-CEM leukemia, 22.6 µM; in the test on EKVX NSCLC, 32.1 µM; in the test on HT29 colon, 27.1 µM; in the test with IGROV1 ovarian, 30.3 µM; with M14 melanoma, 33.6 µM. In addition, the TGI with MDA-MB-231 breast amounted to 28.9 µM; with MOLT-4 leukemia, 25.2 µM; in the test with RPMI-8226 leukemia, 8.54 µM; with SK-OV-3 ovarian it was 33.1 µM.
Regarding `Cc1cccc(NC(=S)Nc2cccc(Cl)c2)n1`, the TGI with A498 renal, in the test on CCRF-CEM leukemia, with EKVX NSCLC, in the test with HT29 colon, with IGROV1 ovarian and in the test with M14 melanoma was more than 100 µM each time. Also, the TGI with MDA-MB-231 breast is more than 100 µM; in the test on MOLT-4 leukemia, more than 100 µM; in the test on RPMI-8226 leukemia, more than 100 µM; with SK-OV-3 ovarian, 98.6 µM.
For `O=C1OC2(CCCCC2)C(Oc2ccc(Cl)cc2)=C1F`, the TGI with A498 renal was more than 100 µM; in the test on CCRF-CEM leukemia, 86.1 µM; in the test with EKVX NSCLC, more than 100 µM; in the test on HT29 colon, more than 100 µM; in the test with IGROV1 ovarian, more than 100 µM; in the test with M14 melanoma, more than 100 µM. Besides, the TGI with MDA-MB-231 breast is more than 100 µM; in the test on MOLT-4 leukemia, 48.5 µM; in the test with RPMI-8226 leukemia it was more than 100 µM; in the test with SK-OV-3 ovarian it was more than 100 µM.
With `Clc1cc(Cl)nc(Nc2ccc3c(c2)CCC3)n1`, the TGI was more than 100 µM in the test with A498 renal; 72.8 µM with CCRF-CEM leukemia; 71.5 µM in the test with EKVX NSCLC; 51.5 µM in the test with HT29 colon; 72.3 µM with IGROV1 ovarian; more than 100 µM with M14 melanoma. The TGI with MDA-MB-231 breast was more than 100 µM; with MOLT-4 leukemia, 69.6 µM; with RPMI-8226 leukemia it was 42 µM; in the test on SK-OV-3 ovarian, more than 100 µM.
In the case of `CC(C)(C)c1cc(C(C)(C)C)c(SC2OC(CO)C(O)C(O)C2O)c(O)c1O` (stereo not given), the TGI with A498 renal is 34.8 µM; in the test on CCRF-CEM leukemia it was more than 34.7 µM; in the test with EKVX NSCLC it was more than 53.3 µM; in the test with HT29 colon, 24.5 µM; with IGROV1 ovarian, 43.4 µM; with M14 melanoma, more than 100 µM. For the same molecule, the TGI in the test with MDA-MB-231 breast is 50.9 µM; in the test with MOLT-4 leukemia, more than 100 µM; in the test with RPMI-8226 leukemia, 76.1 µM; with SK-OV-3 ovarian it was 32.9 µM.
Take `CN1CCC(O)(OC(=O)C(c2ccccc2)C2(O)CCCC2)CC1` (stereo not given): the TGI in the test with A498 renal, with CCRF-CEM leukemia, in the test on EKVX NSCLC, with HT29 colon, in the test on IGROV1 ovarian and with M14 melanoma was more than 100 µM throughout. The TGI with MDA-MB-231 breast, in the test on MOLT-4 leukemia, in the test on RPMI-8226 leukemia and in the test on SK-OV-3 ovarian was more than 100 µM throughout.
Turning to `Cc1c2oc(=O)c(C#N)cc2c2ccccn12`, the TGI in the test on A498 renal, in the test with CCRF-CEM leukemia, with EKVX NSCLC, in the test on HT29 colon, with IGROV1 ovarian and with M14 melanoma was more than 100 µM each time. For the same molecule, the TGI in the test with MDA-MB-231 breast, in the test on MOLT-4 leukemia, in the test with RPMI-8226 leukemia and with SK-OV-3 ovarian was more than 100 µM in each case.
